Laboratory results from ChEMBL document CHEMBL1909046, “DrugMatrix in vitro pharmacology data”.
Where a SMILES comes first, the peptide text is derived from it. Bridges are numbered along the chain shown (N, C = ends). [ ]: non-standard residue; d: D form. The star is where a group is joined. Ileψ(thiazoline)Cys = CC[C@H](C)[C@H](N)C1=N[C@H](C(=O)*)CS1; dOrn = NCCC[C@@H](N)C(=O)O

How the values were obtained:
[1] = target: T1, Nitric oxide synthase, inducible (Mus musculus, UniProt P29477); parameters: species or system Escherichia coli;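 further: inhibition of iNOS enzyme activity measured with L-arginine as substrate; in other assays of this panel Not Active means under 50% inhibition at 10 µM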
T1 sequence (P29477 whole entry): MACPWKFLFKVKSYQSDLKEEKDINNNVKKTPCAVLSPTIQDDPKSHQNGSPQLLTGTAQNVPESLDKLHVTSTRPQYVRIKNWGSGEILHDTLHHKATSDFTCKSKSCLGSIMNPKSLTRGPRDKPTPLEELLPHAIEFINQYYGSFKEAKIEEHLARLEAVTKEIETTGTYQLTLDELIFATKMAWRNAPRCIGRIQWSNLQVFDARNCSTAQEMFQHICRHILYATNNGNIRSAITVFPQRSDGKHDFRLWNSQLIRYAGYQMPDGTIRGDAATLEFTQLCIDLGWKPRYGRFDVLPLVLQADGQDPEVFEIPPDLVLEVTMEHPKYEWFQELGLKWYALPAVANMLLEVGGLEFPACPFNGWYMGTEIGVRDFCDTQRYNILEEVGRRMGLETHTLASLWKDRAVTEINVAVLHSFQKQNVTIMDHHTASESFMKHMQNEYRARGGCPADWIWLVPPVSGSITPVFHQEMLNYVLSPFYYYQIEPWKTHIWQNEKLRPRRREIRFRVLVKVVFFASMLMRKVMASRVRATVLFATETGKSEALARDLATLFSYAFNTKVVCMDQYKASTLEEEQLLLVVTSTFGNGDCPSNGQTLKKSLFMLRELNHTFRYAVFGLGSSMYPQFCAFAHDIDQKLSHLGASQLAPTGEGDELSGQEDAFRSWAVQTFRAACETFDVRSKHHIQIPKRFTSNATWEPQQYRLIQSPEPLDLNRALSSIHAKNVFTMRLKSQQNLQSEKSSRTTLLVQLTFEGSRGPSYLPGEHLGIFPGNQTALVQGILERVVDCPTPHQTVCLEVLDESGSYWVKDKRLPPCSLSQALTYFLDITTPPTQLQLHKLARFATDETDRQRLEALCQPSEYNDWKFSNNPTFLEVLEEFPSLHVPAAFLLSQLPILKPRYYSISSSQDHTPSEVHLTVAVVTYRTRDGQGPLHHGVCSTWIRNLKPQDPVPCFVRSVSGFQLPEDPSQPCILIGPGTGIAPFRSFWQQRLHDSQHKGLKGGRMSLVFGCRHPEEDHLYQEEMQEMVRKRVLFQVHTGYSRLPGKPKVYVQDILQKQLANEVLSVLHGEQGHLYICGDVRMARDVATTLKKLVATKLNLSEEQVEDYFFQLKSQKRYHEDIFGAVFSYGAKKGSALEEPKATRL

Melanocortin receptor 4 = Melanocortin receptor 4 (Homo sapiens, UniProt P32245); format: cell membranes, Membrane; details: hek293; further: in other assays of this panel Not Active means under 50% inhibition at 10 µM
Melanocortin receptor 4, sequence (P32245 whole entry): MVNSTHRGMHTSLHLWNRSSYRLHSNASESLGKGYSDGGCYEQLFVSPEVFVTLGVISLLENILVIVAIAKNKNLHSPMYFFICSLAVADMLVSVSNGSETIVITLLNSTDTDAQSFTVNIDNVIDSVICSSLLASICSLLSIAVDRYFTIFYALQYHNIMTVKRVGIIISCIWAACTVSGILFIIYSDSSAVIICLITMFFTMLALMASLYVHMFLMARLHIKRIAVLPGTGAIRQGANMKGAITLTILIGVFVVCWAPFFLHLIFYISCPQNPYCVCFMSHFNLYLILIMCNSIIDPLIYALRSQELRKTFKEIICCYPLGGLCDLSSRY

[2] = DRUGMATRIX: Calcium Channel Type L, Dihydropyridine radioligand binding (ligand: [3H] Nitrendipine); format: cell membranes, Rattus norvegicus, Wistar, Cerebral cortex, Membrane; details: Not Active = under 50% inhibition at 10 µM
Cannabinoid receptor 1 = Cannabinoid receptor 1 (Homo sapiens, UniProt P21554); format: cell membranes, Membrane; details: chem-1; further: in other assays of this panel Not Active means under 50% inhibition at 10 µM
Cannabinoid receptor 1, sequence (P21554 whole entry): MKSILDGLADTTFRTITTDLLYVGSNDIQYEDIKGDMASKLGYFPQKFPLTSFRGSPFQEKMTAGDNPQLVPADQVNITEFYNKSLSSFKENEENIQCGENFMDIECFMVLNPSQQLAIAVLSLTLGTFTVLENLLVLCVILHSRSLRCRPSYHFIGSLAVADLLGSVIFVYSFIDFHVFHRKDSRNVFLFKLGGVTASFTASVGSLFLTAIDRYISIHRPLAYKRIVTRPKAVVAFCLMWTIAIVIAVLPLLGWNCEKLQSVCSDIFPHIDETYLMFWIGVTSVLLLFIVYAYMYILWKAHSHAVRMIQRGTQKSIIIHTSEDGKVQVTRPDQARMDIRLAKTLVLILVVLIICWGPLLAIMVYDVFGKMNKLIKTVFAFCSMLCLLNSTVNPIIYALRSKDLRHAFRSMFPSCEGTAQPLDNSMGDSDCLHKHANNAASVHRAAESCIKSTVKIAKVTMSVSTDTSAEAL

[3] = target: Mitogen-activated protein kinase 14 (Homo sapiens, UniProt Q16539); parameters: species or system Escherichia coli;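 further: inhibition of p38alpha enzyme activity in a biochemical kinase assay, with myelin basic protein serving as substrate; in other assays of this panel Not Active means under 50% inhibition at 10 µM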
Mitogen-activated protein kinase 14, sequence (Q16539 whole entry): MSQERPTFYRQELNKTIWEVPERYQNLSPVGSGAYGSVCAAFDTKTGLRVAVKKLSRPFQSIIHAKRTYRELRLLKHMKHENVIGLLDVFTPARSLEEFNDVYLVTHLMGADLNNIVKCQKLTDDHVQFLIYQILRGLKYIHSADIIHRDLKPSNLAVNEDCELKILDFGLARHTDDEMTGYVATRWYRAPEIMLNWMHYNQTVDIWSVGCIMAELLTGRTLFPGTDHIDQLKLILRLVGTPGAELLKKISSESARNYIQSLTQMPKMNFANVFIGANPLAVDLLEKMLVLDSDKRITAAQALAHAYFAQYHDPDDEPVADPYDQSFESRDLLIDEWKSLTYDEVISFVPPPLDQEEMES

Cytochrome P450 2E1 = Cytochrome P450 2E1 (Homo sapiens, UniProt P05181); details: bti-tn-5b1-4; further: in other assays of this panel Not Active means under 50% inhibition at 10 µM
Cytochrome P450 2E1, sequence (P05181 whole entry): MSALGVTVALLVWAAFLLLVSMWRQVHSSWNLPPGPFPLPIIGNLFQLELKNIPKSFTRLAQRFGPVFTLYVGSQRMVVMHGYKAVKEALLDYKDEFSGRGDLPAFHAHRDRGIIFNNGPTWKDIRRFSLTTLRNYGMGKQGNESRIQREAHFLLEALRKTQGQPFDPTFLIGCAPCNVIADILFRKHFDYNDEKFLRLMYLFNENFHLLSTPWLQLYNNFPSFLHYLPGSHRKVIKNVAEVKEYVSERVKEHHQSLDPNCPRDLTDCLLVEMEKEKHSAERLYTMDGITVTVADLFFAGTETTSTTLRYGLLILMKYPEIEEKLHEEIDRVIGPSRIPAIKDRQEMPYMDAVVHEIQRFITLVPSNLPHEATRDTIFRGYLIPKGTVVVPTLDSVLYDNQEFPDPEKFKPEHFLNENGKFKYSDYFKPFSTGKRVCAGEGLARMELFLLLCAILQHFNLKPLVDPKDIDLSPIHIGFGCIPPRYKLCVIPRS

[4] = DRUGMATRIX: Leukotriene, BLT (LTB4) radioligand binding (ligand: [3H]LTB4); format: cell membranes, Membrane; details: u-937; Not Active = under 50% inhibition at 10 µM
D(3) dopamine receptor = D(3) dopamine receptor (Homo sapiens, UniProt P35462); assay: DRUGMATRIX: Dopamine D3 radioligand binding (ligand: [3H] Spiperone); format: cell membranes, CHO, Membrane; details: cho
D(3) dopamine receptor, sequence (P35462 whole entry): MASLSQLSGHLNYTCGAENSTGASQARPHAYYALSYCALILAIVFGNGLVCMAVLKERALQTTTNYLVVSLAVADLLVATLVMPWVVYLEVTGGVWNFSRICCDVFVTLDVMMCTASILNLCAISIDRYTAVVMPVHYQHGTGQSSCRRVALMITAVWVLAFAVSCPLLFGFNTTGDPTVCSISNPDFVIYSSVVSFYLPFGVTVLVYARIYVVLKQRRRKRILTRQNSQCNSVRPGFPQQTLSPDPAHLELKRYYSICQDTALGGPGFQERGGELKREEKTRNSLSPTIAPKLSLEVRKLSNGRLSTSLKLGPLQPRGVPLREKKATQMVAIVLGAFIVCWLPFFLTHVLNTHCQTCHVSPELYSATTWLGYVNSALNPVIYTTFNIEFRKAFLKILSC

[5] = target: Tyrosine-protein kinase Lck (Homo sapiens, UniProt P06239); assay: DRUGMATRIX: Protein Tyrosine Kinase, LCK enzyme inhibition (substrate: Poly(Glu:Tyr)); format: cell-based, Insect cells; details: insect cells; Not Active = under 50% inhibition at 10 µM
Tyrosine-protein kinase Lck, sequence (P06239 whole entry): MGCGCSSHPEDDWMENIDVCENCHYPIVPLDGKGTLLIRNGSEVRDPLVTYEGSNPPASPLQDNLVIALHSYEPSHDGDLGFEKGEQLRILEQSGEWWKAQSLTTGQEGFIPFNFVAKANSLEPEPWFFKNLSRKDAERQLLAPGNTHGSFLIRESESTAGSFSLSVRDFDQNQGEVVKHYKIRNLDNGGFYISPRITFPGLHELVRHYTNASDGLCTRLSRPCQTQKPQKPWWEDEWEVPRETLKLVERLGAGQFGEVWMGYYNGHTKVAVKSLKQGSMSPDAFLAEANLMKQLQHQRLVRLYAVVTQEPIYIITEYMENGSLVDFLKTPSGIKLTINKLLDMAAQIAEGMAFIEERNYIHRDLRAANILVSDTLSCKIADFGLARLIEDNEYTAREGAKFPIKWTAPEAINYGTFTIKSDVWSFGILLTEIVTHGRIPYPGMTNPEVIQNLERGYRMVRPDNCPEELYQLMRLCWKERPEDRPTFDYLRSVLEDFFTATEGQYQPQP

[6] = target: T2, Type-2 angiotensin II receptor (Homo sapiens, UniProt P50052); format: cell-based; details: cho-k1; further: in other assays of this panel Not Active means under 50% inhibition at 10 µM
T2 sequence (P50052 whole entry): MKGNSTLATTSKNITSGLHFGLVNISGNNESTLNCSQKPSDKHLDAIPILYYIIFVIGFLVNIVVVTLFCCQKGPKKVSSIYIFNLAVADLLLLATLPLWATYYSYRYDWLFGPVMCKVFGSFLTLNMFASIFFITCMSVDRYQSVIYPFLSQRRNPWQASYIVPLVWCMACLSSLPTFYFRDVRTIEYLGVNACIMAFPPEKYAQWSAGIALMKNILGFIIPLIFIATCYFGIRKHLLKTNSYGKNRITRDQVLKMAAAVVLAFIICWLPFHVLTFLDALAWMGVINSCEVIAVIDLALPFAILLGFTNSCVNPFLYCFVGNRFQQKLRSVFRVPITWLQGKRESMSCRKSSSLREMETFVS

[7] = target: T3, Polyunsaturated fatty acid lipoxygenase ALOX15 (Oryctolagus cuniculus, UniProt P12530); assay: biochemical; format: tissue-based, Reticulocytes; details: reticulocytes
T3 sequence (P12530 whole entry): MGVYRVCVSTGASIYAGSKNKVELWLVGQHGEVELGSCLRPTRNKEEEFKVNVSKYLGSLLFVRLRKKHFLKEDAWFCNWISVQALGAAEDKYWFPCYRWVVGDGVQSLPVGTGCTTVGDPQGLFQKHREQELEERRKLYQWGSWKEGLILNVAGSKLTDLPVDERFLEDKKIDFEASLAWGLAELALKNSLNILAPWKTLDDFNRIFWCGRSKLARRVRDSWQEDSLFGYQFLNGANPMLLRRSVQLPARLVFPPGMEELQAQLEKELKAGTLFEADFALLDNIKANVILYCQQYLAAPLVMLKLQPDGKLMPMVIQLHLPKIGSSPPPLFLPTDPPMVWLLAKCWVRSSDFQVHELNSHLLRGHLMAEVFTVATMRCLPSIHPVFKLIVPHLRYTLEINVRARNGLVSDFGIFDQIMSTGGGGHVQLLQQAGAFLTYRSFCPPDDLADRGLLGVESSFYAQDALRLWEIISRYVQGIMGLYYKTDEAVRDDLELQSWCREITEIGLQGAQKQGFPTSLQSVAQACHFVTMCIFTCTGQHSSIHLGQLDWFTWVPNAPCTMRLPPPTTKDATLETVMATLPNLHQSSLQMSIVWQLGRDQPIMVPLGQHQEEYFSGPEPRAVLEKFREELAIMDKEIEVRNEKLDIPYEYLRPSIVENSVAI

Glycine receptor = Glycine receptor (Rattus norvegicus, UniProt P22771+P24524+P07727+P20781); format: cell membranes, Wistar, Spinal cord, Membrane; further: in other assays of this panel Not Active means under 50% inhibition at 10 µM

COc1ccc2cc(CC(=O)O)ccc2c1
Not Active: IC50 [1] | IC50 (Melanocortin receptor 4) | IC50 [2] | Ki [2] | IC50 (Cannabinoid receptor 1) | IC50 [3] | IC50 (Cytochrome P450 2E1) | Ki (Cytochrome P450 2E1) | IC50 [4] | Ki [4] | IC50 (D(3) dopamine receptor) | IC50 [5] | IC50 [6] | IC50 [7] | IC50 (Glycine receptor)

CC(C)NC[C@H](O)COc1cccc2[nH]ccc12
Not Active: IC50 [1] | IC50 (Melanocortin receptor 4) | IC50 [2] | Ki [2] | IC50 (Cannabinoid receptor 1) | IC50 [3] | IC50 [4] | Ki [4] | IC50 (D(3) dopamine receptor) | IC50 [5] | IC50 [6] | IC50 [7] | IC50 (Glycine receptor)

c1ccc2c(c1)cc1ccc3cccc4ccc2c1c34
Not Active: IC50 [1] | IC50 (Melanocortin receptor 4) | IC50 [2] | Ki [2] | IC50 (Cannabinoid receptor 1) | IC50 [3] | IC50 (Cytochrome P450 2E1) | Ki (Cytochrome P450 2E1) | IC50 [4] | Ki [4] | IC50 (D(3) dopamine receptor) | IC50 [5] | IC50 [6] | IC50 [7] | IC50 (Glycine receptor)

CC=CC(=O)N(CC)c1ccccc1C
Not Active: IC50 [1] | IC50 (Melanocortin receptor 4) | IC50 [2] | Ki [2] | IC50 (Cannabinoid receptor 1) | IC50 [3] | IC50 (Cytochrome P450 2E1) | Ki (Cytochrome P450 2E1) | IC50 [4] | Ki [4] | IC50 (D(3) dopamine receptor) | IC50 [5] | IC50 [6] | IC50 [7] | IC50 (Glycine receptor)

C=C1C(=O)O[C@@H]2C3O[C@]3(C)CC/C=C(\C)CC[C@@H]12 (stereo partly specified)
Not Active: IC50 [1] | IC50 (Melanocortin receptor 4) | IC50 [2] | Ki [2] | IC50 (Cannabinoid receptor 1) | IC50 [3] | IC50 (Cytochrome P450 2E1) | Ki (Cytochrome P450 2E1) | IC50 [4] | Ki [4] | IC50 (D(3) dopamine receptor) | IC50 [5] | IC50 [6] | IC50 [7] | IC50 (Glycine receptor)

CC(/C=C1\SC(=S)N(CC(=O)O)C1=O)=C\c1ccccc1
Not Active: IC50 [1] | IC50 (Melanocortin receptor 4) | IC50 [2] | Ki [2] | IC50 (Cannabinoid receptor 1) | IC50 [3] | IC50 (Cytochrome P450 2E1) | Ki (Cytochrome P450 2E1) | IC50 [4] | Ki [4] | IC50 (D(3) dopamine receptor) | IC50 [5] | IC50 [6] | IC50 [7] | IC50 (Glycine receptor)

CC[C@H](C)[C@H](N)C1=N[C@H](C(=O)N[C@@H](CC(C)C)C(=O)N[C@H](CCC(=O)O)C(=O)N[C@H](C(=O)N[C@H]2CCCCNC(=O)[C@H](CC(N)=O)NC(=O)[C@@H](CC(=O)O)NC(=O)[C@H](Cc3cnc[nH]3)NC(=O)[C@@H](Cc3ccccc3)NC(=O)[C@H]([C@@H](C)CC)NC(=O)[C@@H](CCCN)NC2=O)[C@@H](C)CC)CS1 [BACITRACIN] ({Ileψ(thiazoline)Cys}-L[dE]IK[dOrn]I[dF]H[dD]N; lactam 4-C)
Not Active: IC50 [1] | IC50 (Melanocortin receptor 4) | IC50 [2] | Ki [2] | IC50 (Cannabinoid receptor 1) | IC50 [3] | IC50 (Cytochrome P450 2E1) | Ki (Cytochrome P450 2E1) | IC50 [4] | Ki [4] | IC50 (D(3) dopamine receptor) | IC50 [6] | IC50 [7] | IC50 (Glycine receptor)

O=C1OCCN1/N=C/c1ccc([N+](=O)[O-])o1 [FURAZOLIDONE]
Not Active: IC50 [1] | IC50 (Melanocortin receptor 4) | IC50 [2] | Ki [2] | IC50 (Cannabinoid receptor 1) | IC50 [3] | IC50 [4] | Ki [4] | IC50 (D(3) dopamine receptor) | IC50 [5] | IC50 [6] | IC50 [7] | IC50 (Glycine receptor)

NCC(=O)O [GLYCINE]
Not Active: IC50 [1] | IC50 (Melanocortin receptor 4) | IC50 [2] | Ki [2] | IC50 (Cannabinoid receptor 1) | IC50 [3] | IC50 [4] | Ki [4] | IC50 (D(3) dopamine receptor) | IC50 [5] | IC50 [6] | IC50 [7] | IC50 (Glycine receptor)

O=P1(NCCCl)OCCCN1CCCl (stereo unspecified) [IFOSFAMIDE]
Not Active: IC50 [1] | IC50 (Melanocortin receptor 4) | IC50 [2] | Ki [2] | IC50 (Cannabinoid receptor 1) | IC50 [3] | IC50 [4] | Ki [4] | IC50 (D(3) dopamine receptor) | IC50 [5] | IC50 [6] | IC50 [7] | IC50 (Glycine receptor)
